Patent publication US6020521A, “Macrolide LHRH antagonists” (Abbott Laboratories, priority 1998, dated 2000)

Molecular target: T1, LHRH rat pituitary receptor (Rattus norvegicus, UniProt P30969)
T1 construct: from tissue; host or cells: rat pituitary
T1 sequence (P30969 1-327): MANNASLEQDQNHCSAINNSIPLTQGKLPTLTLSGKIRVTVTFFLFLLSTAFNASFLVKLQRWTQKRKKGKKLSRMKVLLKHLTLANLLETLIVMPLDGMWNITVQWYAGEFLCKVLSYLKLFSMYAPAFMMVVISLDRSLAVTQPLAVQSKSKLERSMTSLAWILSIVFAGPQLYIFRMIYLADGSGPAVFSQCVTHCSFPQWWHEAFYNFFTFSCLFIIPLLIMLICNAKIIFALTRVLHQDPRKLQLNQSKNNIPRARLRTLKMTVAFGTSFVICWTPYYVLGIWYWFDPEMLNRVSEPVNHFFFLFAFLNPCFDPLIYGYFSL
Assay: LHRH rat pituitary receptor binding (pKI)
Details: receptor binding affinity, negative logarithm of the equilibrium dissociation constants
Method: Representative compounds of the present invention were evaluated in in vitro tests for LHRH rat pituitary receptor binding (pKI) and for LH inhibition from rat pituitary cells for antagonist potency (pA2). The tests employed the methods detailed in F. Haviv, et al. J. Med. Chem., 32: 2340-2344 (1989). The receptor binding affinity (pKI) is the negative logarithm of the equilibrium dissociation constants.

- Ki: 3.09 nM
SMILES: CC[C@H]1OC(=O)[C@H](C)[C@@H](OC(=O)N2C(=O)OC[C@@H]2C)[C@H](C)[C@@H](O[C@@H]2O[C@H](C)C[C@H](N(C)C3CCC3)[C@H]2O)[C@](C)(OC)C[C@@H](C)C(=O)[C@H](C)[C@H]2N(CCc3ccc(Cl)c(Cl)c3)C(=O)O[C@]12C [Example 13, 11-Deoxy-11-[carboxy(3,4-dichlorophenethyl)amino]-3-O-[4-(S)-methyl-oxazolidin-2-one]carbamoyl-5-O-(3'-N-desmethyl-3'-N-cyclobutyl)desosaminyl-6-O-methyl-erythronolide A 11,12-(cyclic carbamate)]
